{"source": "paper PMC7914897", "about": "“Cytotoxic Potential of a-Azepano- and 3-Amino-3,4-SeCo-Triterpenoids” (International Journal of Molecular Sciences, 2021)", "key": {"UO-31 (Renal cancer)": {"test_system": "UO-31 (Renal cancer)", "experiment": "NCI-60 screen (SRB, 48 h)", "conditions": "Homo sapiens"}, "UACC-257 (Melanoma)": {"test_system": "UACC-257 (Melanoma)", "experiment": "NCI-60 screen (SRB, 48 h)", "conditions": "Homo sapiens"}, "OVCAR-3 (Ovarian cancer)": {"test_system": "OVCAR-3 (Ovarian cancer)", "experiment": "cells", "conditions": "Homo sapiens, OVCAR-3"}, "K-562 (Leukemia)": {"test_system": "K-562 (Leukemia)", "experiment": "NCI-60 screen (SRB, 48 h)", "conditions": "Homo sapiens"}, "SK-MEL-2 (Melanoma)": {"test_system": "SK-MEL-2 (Melanoma)", "experiment": "NCI-60 screen (SRB, 48 h)", "conditions": "Homo sapiens"}, "LOX IMVI (Melanoma)": {"test_system": "LOX IMVI (Melanoma)", "experiment": "NCI-60 screen (SRB, 48 h)", "type": "cell-based", "conditions": "Homo sapiens"}, "[1]": {"test_system": "NCI-H322M (NSC lung cancer)", "experiment": "NCI-60 screen (SRB, 48 h)", "conditions": "Homo sapiens"}, "Breast cancer subpanel": {"test_system": "Breast cancer subpanel", "experiment": "NCI-60 screen, subpanel", "conditions": "Homo sapiens"}, "RPMI-8226 (Leukemia)": {"test_system": "RPMI-8226 (Leukemia)", "experiment": "NCI-60 screen (SRB, 48 h)", "conditions": "Homo sapiens"}, "DU-145 (Prostate cancer)": {"test_system": "DU-145 (Prostate cancer)", "experiment": "NCI-60 screen (SRB, 48 h)", "conditions": "Homo sapiens"}, "Melanoma subpanel": {"test_system": "Melanoma subpanel", "experiment": "NCI-60 screen, subpanel", "conditions": "Homo sapiens"}, "[2]": {"test_system": "panel of approximately 60 cancer cell lines", "experiment": "NCI-60 screen (SRB, 48 h), full panel"}, "[3]": {"test_system": "NCI/ADR-RES (Ovarian cancer)", "experiment": "NCI-60 screen (SRB, 48 h)", "conditions": "Homo sapiens"}, "HS 578T (Breast cancer)": {"test_system": "HS 578T (Breast cancer)", "experiment": "NCI-60 screen (SRB, 48 h)", "conditions": "Homo sapiens"}, "[4]": {"test_system": "NCI-H23 (NSC lung cancer)", "experiment": "NCI-60 screen (SRB, 48 h)", "conditions": "Homo sapiens, NCI-H23"}, "Leukemia subpanel": {"test_system": "Leukemia subpanel", "experiment": "cells", "conditions": "Homo sapiens"}, "Prostate cancer subpanel": {"test_system": "Prostate cancer subpanel", "experiment": "NCI-60 screen, subpanel", "conditions": "Homo sapiens"}, "SK-MEL-28 (Melanoma)": {"test_system": "SK-MEL-28 (Melanoma)", "experiment": "NCI-60 screen (SRB, 48 h)", "conditions": "Homo sapiens, SK-MEL-28"}, "HT29 (Colon cancer)": {"test_system": "HT29 (Colon cancer)", "experiment": "NCI-60 screen (SRB, 48 h)", "conditions": "Homo sapiens"}, "CCRF-CEM (Leukemia)": {"test_system": "CCRF-CEM (Leukemia)", "experiment": "NCI-60 screen (SRB, 48 h)", "conditions": "Homo sapiens"}, "[5]": {"test_system": "MDA-MB-31/ATCC (Breast cancer)", "experiment": "NCI-60 screen (SRB, 48 h)", "conditions": "Homo sapiens"}, "HCT-15 (Colon cancer)": {"test_system": "HCT-15 (Colon cancer)", "experiment": "NCI-60 screen (SRB, 48 h)", "conditions": "Homo sapiens, HCT-15"}, "SN12C (Renal cancer)": {"test_system": "SN12C (Renal cancer)", "experiment": "NCI-60 screen (SRB, 48 h)"}, "IGROV1 (Ovarian cancer)": {"test_system": "IGROV1 (Ovarian cancer)", "experiment": "NCI-60 screen (SRB, 48 h)"}, "U251 (CNS cancer)": {"test_system": "U251 (CNS cancer)", "experiment": "NCI-60 screen (SRB, 48 h)", "conditions": "Homo sapiens, U-251"}, "BT-549 (Breast cancer)": {"test_system": "BT-549 (Breast cancer)", "experiment": "NCI-60 screen (SRB, 48 h)", "type": "cell-based", "conditions": "Homo sapiens"}, "Colon Cancer subpanel": {"test_system": "Colon Cancer subpanel", "experiment": "NCI-60 screen, subpanel", "conditions": "Homo sapiens"}, "[6]": {"test_system": "A549/ATCC (NSC lung cancer)", "experiment": "NCI-60 screen (SRB, 48 h)", "conditions": "Homo sapiens"}}, "note": "Where two headings read alike, the source gives them in different places.", "data": [{"smiles": "C=C(C)[C@@H]1CC[C@]2(COS(=O)(=O)c3ccc(C)cc3)CC[C@]3(C)[C@@H](CC[C@@H]4[C@@]5(C)CCCNC(C)(C)[C@@H]5CC[C@]43C)[C@@H]12", "note": "[Compound 12]", "values": [{"measurement": "GI50", "setting": "UO-31 (Renal cancer); UO-31", "value": 1640, "unit": "nM"}, {"measurement": "IC (TGI)", "setting": "UO-31 (Renal cancer); UO-31, 48 h, read-out: TGI", "value": 3040, "unit": "nM"}, {"measurement": "GI50", "setting": "UACC-257 (Melanoma); UACC-257", "value": 1970, "unit": "nM"}, {"measurement": "IC (TGI)", "setting": "UACC-257 (Melanoma); UACC-257, 48 h, read-out: TGI", "value": 3650, "unit": "nM"}, {"measurement": "GI50", "setting": "OVCAR-3 (Ovarian cancer)", "value": 1670, "unit": "nM"}, {"measurement": "GI50", "setting": "K-562 (Leukemia); K562", "value": 1570, "unit": "nM"}, {"measurement": "CC50", "setting": "K-562 (Leukemia); K562, read-out: LC50", "value": "> 100000", "unit": "nM"}, {"measurement": "GI50", "setting": "SK-MEL-2 (Melanoma); SK-MEL-2", "value": 1840, "unit": "nM"}, {"measurement": "IC (TGI)", "setting": "SK-MEL-2 (Melanoma); SK-MEL-2, 48 h, read-out: TGI", "value": 3320, "unit": "nM"}, {"measurement": "activity at 10 µM", "setting": "LOX IMVI (Melanoma); 48 h, 1 dose 10 µM, read-out: Growth % of the Most Sensitive Cell Lines", "value": -86.5, "unit": "%"}, {"measurement": "GI50", "setting": "LOX IMVI (Melanoma); read-out: GI50", "value": 1720, "unit": "nM"}, {"measurement": "GI50", "setting": "[1]", "value": 1760, "unit": "nM"}, {"measurement": "IC (TGI)", "setting": "[1]; 48 h, read-out: TGI", "value": 3160, "unit": "nM"}, {"measurement": "IC (TGI)", "setting": "Breast cancer subpanel; 48 h, read-out: TGI MG_MID", "value": 3500, "unit": "nM"}, {"measurement": "GI50", "setting": "Breast cancer subpanel; read-out: GI50 MG_MID", "value": 1710, "unit": "nM"}, {"measurement": "GI50", "setting": "RPMI-8226 (Leukemia); RPMI-8226", "value": 1860, "unit": "nM"}, {"measurement": "IC (TGI)", "setting": "RPMI-8226 (Leukemia); RPMI-8226, 48 h, read-out: TGI", "value": 4540, "unit": "nM"}, {"measurement": "CC50", "setting": "RPMI-8226 (Leukemia); RPMI-8226, read-out: LC50", "value": "> 100000", "unit": "nM"}, {"measurement": "GI50", "setting": "DU-145 (Prostate cancer); DU-145", "value": 1770, "unit": "nM"}, {"measurement": "IC (TGI)", "setting": "DU-145 (Prostate cancer); DU-145, 48 h, read-out: TGI", "value": 3300, "unit": "nM"}, {"measurement": "IC (TGI)", "setting": "Melanoma subpanel; 48 h, read-out: TGI MG_MID", "value": 3420, "unit": "nM"}, {"measurement": "GI50", "setting": "Melanoma subpanel; read-out: GI50 MG_MID", "value": 1870, "unit": "nM"}, {"measurement": "Positive Cytostatic Effect (cell lines with percent growth 0 to 50 / total)", "setting": "[2]; 1 dose 10 µM", "value": "11/60"}, {"measurement": "number of cancer cell lines the compound was active against", "setting": "[2]; 1 dose 10 µM", "value": 39, "unit": "cell lines"}, {"measurement": "activity at 10 µM", "setting": "[2]; Homo sapiens, 48 h, read-out: Mean Growth, %", "value": -3.21, "unit": "%"}, {"measurement": "activity at 10 µM", "setting": "[2]; Homo sapiens, 48 h, read-out: Range of Growth, %", "value": "-94.4 to 98.7", "unit": "%"}, {"measurement": "IC (TGI)", "setting": "[2]; Homo sapiens, 48 h, read-out: TGI MG_MID60, average over all cell lines", "value": 3430, "unit": "nM"}, {"measurement": "GI50", "setting": "[2]; Homo sapiens, read-out: GI50 MG_MID60", "value": 1770, "unit": "nM"}, {"measurement": "GI50", "setting": "[2]; Homo sapiens, read-out: GI50 against all human tumor cell lines", "value": "< 3000", "unit": "nM"}, {"measurement": "CC50", "setting": "[2]; Homo sapiens, read-out: LC50 MG_MID60, average over all cell lines", "value": 5840, "unit": "nM"}, {"measurement": "GI50", "setting": "[3]", "value": 1740, "unit": "nM"}, {"measurement": "GI50", "setting": "HS 578T (Breast cancer)", "value": 1790, "unit": "nM"}, {"measurement": "IC (TGI)", "setting": "HS 578T (Breast cancer); 48 h, read-out: TGI", "value": 3940, "unit": "nM"}, {"measurement": "GI50", "setting": "[4]", "value": 1750, "unit": "nM"}, {"measurement": "IC (TGI)", "setting": "Leukemia subpanel; 48 h, read-out: TGI MG_MID", "value": 4060, "unit": "nM"}, {"measurement": "GI50", "setting": "Leukemia subpanel; read-out: GI50 MG_MID", "value": 1830, "unit": "nM"}, {"measurement": "CC50", "setting": "Leukemia subpanel; read-out: LC50 MG_MID", "value": "> 100000", "unit": "nM"}, {"measurement": "IC (TGI)", "setting": "Prostate cancer subpanel; 48 h, read-out: TGI MG_MID", "value": 3150, "unit": "nM"}, {"measurement": "GI50", "setting": "Prostate cancer subpanel; read-out: GI50 MG_MID", "value": 1670, "unit": "nM"}, {"measurement": "GI50", "setting": "SK-MEL-28 (Melanoma)", "value": 2150, "unit": "nM"}, {"measurement": "GI50", "setting": "HT29 (Colon cancer); HT-29", "value": 1930, "unit": "nM"}, {"measurement": "IC (TGI)", "setting": "HT29 (Colon cancer); HT-29, 48 h, read-out: TGI", "value": 3500, "unit": "nM"}, {"measurement": "GI50", "setting": "CCRF-CEM (Leukemia)", "value": 2280, "unit": "nM"}, {"measurement": "CC50", "setting": "CCRF-CEM (Leukemia); read-out: LC50", "value": "> 100000", "unit": "nM"}, {"measurement": "GI50", "setting": "[5]", "value": 1880, "unit": "nM"}, {"measurement": "GI50", "setting": "HCT-15 (Colon cancer)", "value": 1380, "unit": "nM"}, {"measurement": "Growth % of the Most Sensitive Cell Lines", "setting": "SN12C (Renal cancer); 1 dose 10 µM", "value": "−94.44", "unit": "%"}, {"measurement": "GI50", "setting": "SN12C (Renal cancer); Homo sapiens", "value": 1880, "unit": "nM"}, {"measurement": "IC (TGI)", "setting": "SN12C (Renal cancer); Homo sapiens, 48 h, read-out: TGI", "value": 3370, "unit": "nM"}, {"measurement": "GI50", "setting": "IGROV1 (Ovarian cancer); Homo sapiens, IGROV-1", "value": 1840, "unit": "nM"}, {"measurement": "Growth % of the Most Sensitive Cell Lines", "setting": "IGROV1 (Ovarian cancer); IGROV1, 1 dose 10 µM", "value": "−87.10", "unit": "%"}, {"measurement": "GI50", "setting": "U251 (CNS cancer)", "value": 1750, "unit": "nM"}, {"measurement": "GI50", "setting": "BT-549 (Breast cancer); BT-549", "value": 1840, "unit": "nM"}, {"measurement": "IC (TGI)", "setting": "BT-549 (Breast cancer); BT-549, 48 h", "value": 3560, "unit": "nM"}, {"measurement": "IC (TGI)", "setting": "Colon Cancer subpanel; 48 h, read-out: TGI MG_MID", "value": 3370, "unit": "nM"}, {"measurement": "GI50", "setting": "Colon Cancer subpanel; read-out: GI50 MG_MID", "value": 1730, "unit": "nM"}, {"measurement": "GI50", "setting": "[6]; A549", "value": 1870, "unit": "nM"}, {"measurement": "IC (TGI)", "setting": "[6]; A549, 48 h, read-out: TGI", "value": 3500, "unit": "nM"}]}]}
